Molecular target: T1, Human 5-lipoxygenase (Homo sapiens, UniProt P09917)
T1 construct: purchased Cayman 60402; host or cells: insect cells
T1 sequence (P09917 1-674): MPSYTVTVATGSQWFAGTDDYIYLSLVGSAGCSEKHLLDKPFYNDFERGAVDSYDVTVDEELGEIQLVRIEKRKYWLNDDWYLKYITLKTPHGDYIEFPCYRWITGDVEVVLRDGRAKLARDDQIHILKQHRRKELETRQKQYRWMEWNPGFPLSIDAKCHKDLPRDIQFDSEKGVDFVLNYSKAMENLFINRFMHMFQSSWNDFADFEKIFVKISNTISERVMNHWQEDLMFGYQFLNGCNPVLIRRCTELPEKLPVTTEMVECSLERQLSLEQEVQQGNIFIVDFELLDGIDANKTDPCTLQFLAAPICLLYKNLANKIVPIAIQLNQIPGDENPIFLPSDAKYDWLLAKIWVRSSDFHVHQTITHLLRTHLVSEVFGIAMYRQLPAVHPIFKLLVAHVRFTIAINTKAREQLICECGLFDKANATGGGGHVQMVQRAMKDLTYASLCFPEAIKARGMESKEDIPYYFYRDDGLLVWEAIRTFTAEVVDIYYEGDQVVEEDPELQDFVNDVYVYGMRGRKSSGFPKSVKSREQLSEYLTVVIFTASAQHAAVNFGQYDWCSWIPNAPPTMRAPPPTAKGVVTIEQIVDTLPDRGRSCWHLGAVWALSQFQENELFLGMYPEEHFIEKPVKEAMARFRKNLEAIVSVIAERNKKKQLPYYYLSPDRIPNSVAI
Test: Activity of compounds against 5-LO enzyme (LTB4 measurement and/or fluorescence method)
Assay type: biochemical
Details: 5-LO, single concentration of 10 uM in duplicate
Outline: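 Two read-outs: LTB4 measured by EIA and/or LC/MS/MS with LTB4-d4 standard after 15 min RT compound preincubation with insect-cell 5-LO and a 5 min 37 °C reaction on 3 uM arachidonic acid (0.1 mM ATP, pH 7.4). The room-temperature fluorescence format used 20 uM H2DCFDA, 100 uM ATP, 3 uM arachidonic acid, 5 min; IC50 from 6/11-point curves.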

`CCc1nc2cc(Cl)ccn2c1C(=O)NCc1ccc(-c2ccc(C#N)cc2C)cc1` [compound 109, 7-Chloro-N-((4′-cyano-2′-methylbiphenyl-4-yl)methyl)-2-ethylimidazo[1,2-a]pyridine-3-carboxamide] and `CCc1nc2ccc(Cl)cn2c1C(=O)NCc1ccc(-c2ccc(C#N)cc2C)cc1` [compound 104, 6-Chloro-N-((4′-cyano-2′-methylbiphenyl-4-yl)methyl)-2-ethylimidazo[1,2-a]pyridine-3-carboxamide] fall in the same range of inhibition at 10 µM: 40 to 69% for the first, 40 to 69% for the second.

`CCc1nc2ccc(Cl)cn2c1C(=O)N1CCC(OCc2ccc(F)cc2)CC1` [compound 333, (6-chloro-2-ethylimidazo[1,2-a]pyridin-3-yl)(4-((4-fluorobenzyl)oxy)piperidin-1-yl)methanone] and `CCc1nc2ccc(Cl)cn2c1C(=O)N1CCC(OCc2ccc(C)cc2)CC1` [compound 331, (6-chloro-2-ethylimidazo[1,2-a]pyridin-3-yl)(4-((4-methylbenzyl)oxy)piperidin-1-yl)methanone] cannot be ordered by inhibition at 10 µM: < 40% for the first, < 40% for the second.

`CCc1nc2ccc(Cl)cn2c1CNCc1ccc(N2CCC3(CC2)OCCO3)cc1` [compound 346, N-(4-(1,4-dioxa-8-azaspiro[4.5]decan-8-yl)benzyl)-1-(6-chloro-2-ethylimidazo[1,2-a]pyridin-3-yl)methanamine] and `CCc1nc2ccc(Cl)cn2c1C(=O)NCc1ccc(N2CCCCC2)cc1` [compound 74, 6-Chloro-2-ethyl-N-(4-(piperidin-1-yl)benzyl)imidazo[1,2-a]pyridine-3-carboxamide] cannot be ordered by inhibition at 10 µM: < 40% for the first, < 40% for the second.

`Cc1nc2ccc(-c3ccccc3)cn2c1C(=O)NCc1ccccc1` [compound 39, N-Benzyl-2-methyl-6-phenylimidazo[1,2-a]pyridine-3-carboxamide] and `Cc1nc2ccc(Cl)cn2c1C(=O)NCc1ccc(-c2ccccc2)cc1` [compound 43, N-(Biphenyl-4-ylmethyl)-6-chloro-2-methylimidazo[1,2-a]pyridine-3-carboxamide] cannot be ordered by inhibition at 10 µM: < 40% for the first, < 40% for the second.

First: CCc1nc2c(F)cccn2c1C(=O)NCc1ccc(OC(F)(F)F)cc1 [compound 282, 2-Ethyl-8-fluoro-N-(4-(trifluoromethoxy)benzyl)imidazo[1,2-a]pyridine-3-carboxamide]
Second: CCc1nc2ccc(Cl)cn2c1C(=O)NCc1ccc(OC(F)(F)F)cc1 [compound 55]
The inhibition at 10 µM of the first is lower: < 40% for the first, 40 to 69% for the second.

Compared with `CCc1nc2ccc(Cl)cn2c1CN1CCC(CCc2ccc(F)cc2)CC1` [compound 349, 6-chloro-2-ethyl-3-((4-(4-fluorophenethyl)piperidin-1-yl)methyl)imidazo[1,2-a]pyridine], `CCc1nc2ccc(Cl)cn2c1CNC1CCN(Cc2ccccc2)C1` (stereo not shown) [compound 345, 1-Benzyl-N-((6-chloro-2-ethylimidazo[1,2-a]pyridin-3-yl)methyl)pyrrolidin-3-amine] is lower in inhibition at 10 µM: 40 to 69% for the first, < 40% for the second.

`CCc1nc2cc(Cl)ccn2c1C(=O)NCc1ccc(Br)cc1` [compound 96, N-(4-Bromobenzyl)-7-chloro-2-ethylimidazo[1,2-a]pyridine-3-carboxamide] and `CCc1nc2cc(Cl)ccn2c1C(=O)NCc1ccc(C(C)(C)C)cc1` [compound 92, N-(4-tert-Butylbenzyl)-7-chloro-2-ethylimidazo[1,2-a]pyridine-3-carboxamide] fall in the same range of inhibition at 10 µM: 40 to 69% for the first, 40 to 69% for the second.

Compared with `CCc1nc2cc(Cl)ccn2c1C(=O)NCc1ccc2[nH]c(-c3ccc(OC(F)(F)F)cc3)nc2c1` [compound 186, 7-Chloro-2-ethyl-N-((2-(4-(trifluoromethoxy)phenyl)-1H-benzo[d]imidazol-5-yl)methyl)imidazo[1,2-a]pyridine-3-carboxamide], `CCc1nc2cc(Cl)ccn2c1C(=O)NCc1ccc(-c2ccc(Cl)cc2C(F)(F)F)cc1` [compound 103, 7-Chloro-N-((4′-chloro-2′-(trifluoromethyl)biphenyl-4-yl)methyl)-2-ethylimidazo[1,2-a]pyridine-3-carboxamide] is higher in inhibition at 10 µM: 40 to 69% for the first, > 69% for the second.

Compared with `CCc1nc2ccc(Cl)cn2c1C(=O)NCc1ccc(N2CCC(OCc3ccccc3)CC2)cc1` [compound 317, N-(4-(4-(benzyloxy)piperidin-1-yl)benzyl)-6-chloro-2-ethylimidazo[1,2-a]pyridine-3-carboxamide], `CCc1nc2ccc(Cl)cn2c1C(=O)NCc1ccc(N2CCN(Cc3ccc(F)cc3)CC2)cc1` [compound 130, 6-Chloro-2-ethyl-N-(4-(4-(4-fluorobenzyl)piperazin-1-yl)benzyl)imidazo[1,2-a]pyridine-3-carboxamide] is higher in inhibition at 10 µM: < 40% for the first, > 69% for the second.

Compared with `CCc1nc2ccc(C)cn2c1C(=O)NCc1ccc(Oc2ccc(OC(F)(F)F)cc2)cc1` [compound 232, 2-Ethyl-6-methyl-N-(4-(4-(trifluoromethoxy)phenoxy)benzyl)imidazo[1,2-a]pyridine-3-carboxamide], `CCc1nc2ccc(Br)cn2c1C(=O)NCc1ccc(Oc2ccc(F)cc2)cc1` [compound 177, 6-Bromo-2-ethyl-N-(4-(4-fluorophenoxy)benzyl)imidazo[1,2-a]pyridine-3-carboxamide] is lower in inhibition at 10 µM: > 69% for the first, < 40% for the second.

Compared with `CCc1nc2ccc(Cl)cn2c1C(=O)NCc1ccc(OCC(C)C)cc1` [compound 66], `CCc1nc2ccc(Cl)cn2c1C(=O)NCc1ccc(N2CCCCCC2)cc1` [compound 192, N-(4-(Azepan-1-yl)benzyl)-6-chloro-2-ethylimidazo[1,2-a]pyridine-3-carboxamide] is higher in inhibition at 10 µM: < 40% for the first, 40 to 69% for the second.

`Cc1nc2ccccn2c1C(=O)Nc1ccc(Oc2ccccc2)cc1` [compound 13, 2-Methyl-N-(4-phenoxyphenyl)imidazo[1,2-a]pyridine-3-carboxamide] and `Cc1nc2cc(Cl)ccn2c1C(=O)NCc1ccc(-c2ccccc2)cc1` [compound 44, N-(Biphenyl-4-ylmethyl)-7-chloro-2-methylimidazo[2-a]pyridine-3-carboxamide] cannot be ordered by inhibition at 10 µM: < 40% for the first, < 40% for the second.

`CCc1nc2ccccn2c1C(=O)NCc1ccc(CC2CCOCC2)cc1` [compound 357, 2-ethyl-N-(4-((tetrahydro-2H-pyran-4-yl)methyl)benzyl)imidazo[1,2-a]pyridine-3-carboxamide] and `CCc1nc2cc(Cl)ccn2c1C(=O)NCc1ccc(N2CCC(C(=O)O)CC2)cc1` [compound 275, 1-(4-((7-Chloro-2-ethylimidazo[1,2-a]pyridine-3-carboxamido)methyl)phenyl)piperidine-4-carboxylic acid] cannot be ordered by inhibition at 10 µM: < 40% for the first, < 40% for the second.

`CCc1nc2ccc(Cl)cn2c1C(=O)N1CCC(OCc2ccc(OC)cc2)CC1` [compound 335, (6-chloro-2-ethylimidazo[1,2-a]pyridin-3-yl)(4-((4-methoxybenzyl)oxy)piperidin-1-yl)methanone] and `CCc1nc2cc(Cl)ccn2c1C(=O)NCc1ccc(N2CCC(COC(C)C)CC2)cc1` [compound 277, 7-Chloro-2-ethyl-N-(4-(4-(isopropoxymethyl)piperidin-1-yl)benzyl)imidazo[1,2-a]pyridine-3-carboxamide] cannot be ordered by inhibition at 10 µM: < 40% for the first, < 40% for the second.

First: CCc1nc2ccc(Cl)cn2c1C(=O)NCc1ccc(N2CCN(c3ccc(F)cc3)CC2)cc1 [compound 148, 6-Chloro-2-ethyl-N-(4-(4-(4-fluorophenyl)piperazin-1-yl)benzyl)imidazo[1,2-a]pyridine-3-carboxamide]
Second: CCc1nc2cc(Cl)ccn2c1C(=O)NCc1ccc(-n2cc3c(c2)CCCC3)cc1 [compound 217, 7-Chloro-2-ethyl-N-(4-(4,5,6,7-tetrahydro-2H-isoindol-2-yl)benzyl)imidazo[1,2-a]pyridine-3-carboxamide]
The inhibition at 10 µM of the first is lower: 40 to 69% for the first, > 69% for the second.

Same assay, conditions: 6 or 11 point dose response in duplicate

Compared with `CCc1nc2ncccn2c1C(=O)N1CCC(OCc2ccc(OC(F)(F)F)cc2)CC1` [compound 385, (2-Ethylimidazo[1,2-a]pyrimidin-3-yl)(4-((4-(trifluoromethoxy)benzyl)oxy)piperidin-1-yl)methanone], `CCc1nc2ccc(Cl)cn2c1C(=O)N1CCCC(OCc2ccc(OC(F)(F)F)cc2)C1` (stereo not shown) [compound 382, (6-chloro-2-ethylimidazo[1,2-a]pyridin-3-yl)(3-(4-(trifluoromethoxy)benzyloxy)-piperidin-1-yl)methanone] is lower in IC50: > 20 µM for the first, 1 to 20 µM for the second.

`CCc1nc2ccc(Cl)cn2c1CNCc1ccc(N2CCN(c3ccc(F)cc3)CC2)cc1` [compound 381, 1-(6-chloro-2-ethylimidazo[1,2-a]pyridin-3-yl)-N-(4-(4-(4-fluorophenyl)piperazin-1-yl)benzyl)methanamine] and `CCc1nc2ccc(Cl)cn2c1C(=O)NCc1ccc(N2CCN(c3ccc(F)cc3)CC2)cc1` [compound 148, 6-Chloro-2-ethyl-N-(4-(4-(4-fluorophenyl)piperazin-1-yl)benzyl)imidazo[1,2-a]pyridine-3-carboxamide] fall in the same range of IC50: 1 to 20 µM for the first, 1 to 20 µM for the second.

First: CCc1nc2cccnn2c1C(=O)NCc1ccc(-c2ccc(Cl)cc2)cc1 [compound 388, N-((4′-Chloro-[1,1′-biphenyl]-4-yl)methyl)-2-ethylimidazo[1,2-b]pyridazine-3-carboxamide]
Second: CCc1nc2cc(Cl)ccn2c1C(=O)NCc1ccc(-c2ccc(Cl)cc2C(F)(F)F)cc1 [compound 103, 7-Chloro-N-((4′-chloro-2′-(trifluoromethyl)biphenyl-4-yl)methyl)-2-ethylimidazo[1,2-a]pyridine-3-carboxamide]
The IC50 of the first is higher: > 20 µM for the first, 1 to 20 µM for the second.

Compared with `CCc1nc2ccc(C)cn2c1C(=O)NCc1ccc(Oc2ccc(OC(F)(F)F)cc2)cc1` [compound 232, 2-Ethyl-6-methyl-N-(4-(4-(trifluoromethoxy)phenoxy)benzyl)imidazo[1,2-a]pyridine-3-carboxamide], `CCc1nc2ccc(Cl)cn2c1C(=O)NCc1ccc(OC(F)(F)F)cc1` [compound 55] is higher in IC50: < 1 µM for the first, 1 to 20 µM for the second.

`CCc1nc2ccc(Cl)cn2c1C(=O)NCc1ccc(N2CCN(Cc3ccc(F)cc3)CC2)cc1` [compound 130, 6-Chloro-2-ethyl-N-(4-(4-(4-fluorobenzyl)piperazin-1-yl)benzyl)imidazo[1,2-a]pyridine-3-carboxamide] and `CCc1nc2cc(Cl)ccn2c1C(=O)NCc1ccc(-n2cc3c(c2)CCCC3)cc1` [compound 217, 7-Chloro-2-ethyl-N-(4-(4,5,6,7-tetrahydro-2H-isoindol-2-yl)benzyl)imidazo[1,2-a]pyridine-3-carboxamide] fall in the same range of IC50: 1 to 20 µM for the first, 1 to 20 µM for the second.
